Assay results: patent US4876262A, “Piperidine derivative and pharmaceutical composition containing the same” (Eisai Co., Ltd., priority 1986, dated 1989)
Structures can show the parent of a compound that is named as a salt. Where two headings read alike, the source gives them in different places.

Legend:
[1] = tested on: isolated myocardium of guinea-pigs (right ventricular papillary muscles); test: Effects on the action potential duration in the isolated myocardium of guinea-pigs; set-up: species or system guinea-pig (male, Hartley strain); details: Cavia porcellus, 10 min; for activation at 10 µM / activation at 1 µM: read-out: APD90 prolongation; for inhibition at 10 µM / inhibition at 1 µM: read-out: Vmax inhibition
Protocol: Right ventricular papillary muscles were isolated from male guinea-pigs of Hartley strain weighing 300 to 400 g and fixed at the bottom of an acrylic bath with pins. […] The muscles were stimulated at 1 Hz with rectangular pulses of 1 msec duration and supramaximal voltage. Action potentials were recorded using conventional glass microelectrodes filled with 3M KCl. The duration of the action potential and the maximum velocity of the upstroke of the action potential (Vmax) were determined. Each of the test compounds was included in Tyrode solution at 10^-6 or 10^-5 M and perfused.
Sotalol, a beta-adrenoceptor antagonist was employed as the reference drug because this compound is known to prolong the duration of the myocardial action potential.

in vivo = details: mouse, iv
Protocol: Male ddy mice weighing 20 to 30 g were used for the acute toxicity test. LD50 values were calculated by the up-and-down method. […] The dose to be administered was determined on the basis of the volume of the stock solution. The solutions were injected into a tail vein by means of a 1-ml tuberculin syringe. The judgement of survival or death was made 30 min after each injection.

[2] = tested on: anesthetized dogs (QTc-interval of ECG); test: Effects of QTc-interval of ECG in anesthetized dogs; type: in vivo, Mongrel dogs; details: forearm vein; for change in vivo at 1 mg/kg: 1 mg/kg (1.0 mg/kg)
[3] = 10^-5 M, another 10 min after 10^-6 M, 1 Hz, 37° C.
[4] = 10^-6 M, first 10 min, 1 Hz, 37° C.
[5] = Canis lupus familiaris, iv, 0.1 mg/kg, enflurane anesthesia, read-out: prolongation of QTc-interval
[6] = Canis lupus familiaris, iv, enflurane anesthesia, read-out: prolongation of QTc-interval

| Structure (SMILES) | activation at 10 µM [1, 3] [%] | inhibition at 10 µM [1, 3] [%] | activation at 1 µM [1, 4] [%] | inhibition at 1 µM [1, 4] [%] | LD50 at 0.5 h (in vivo) [mg/kg] | change in vivo at 0.03 mg/kg ([2]; Canis lupus familiaris, iv, 0.03 mg/kg, enflurane anesthesia, read-out: prolongation of QTc-interval) [%] | change in vivo at 0.1 mg/kg [2, 5] [%] | activation at 1 µM [1] [%] | activation at 10 µM [1] [%] | inhibition at 1 µM [1] [%] | inhibition at 10 µM [1] [%] | change in vivo at 0.3 mg/kg [2, 6] [%] | change in vivo at 1 mg/kg [2, 6] [%] | QTc-interval after compound ([2]; 0.1 mg/kg, from 435 msec before) [ms] |
| --- | --- | --- | --- | --- | --- | --- | --- | --- | --- | --- | --- | --- | --- | --- |
| CS(=O)(=O)Nc1ccc(C(=O)C2CCN(Cc3cn4ccccc4n3)CC2)cc1 [Compound O, 1-(1-imidazo[1,2-a]pyridylmethyl)-4-(4-methylsulfonylaminobenzoyl)piperidine dihydrochloride] | 12 | 5 | 6 | 0 | 302 |  |  |  |  |  |  |  |  |  |
| CS(=O)(=O)Nc1ccc(C(=O)C2CCN(CCCc3ccncc3)CC2)cc1.Cl.Cl [Compound R, 4-(4-methylsulfonylaminobenzoyl)-1-(3-(4-pyridyl)propyl)piperidine dihydrochloride] | 27 | 0 | 18 | 0 | 138 | 13 | 21 |  |  |  |  |  |  |  |
| CS(=O)(=O)Nc1ccc(C(=O)C2CCN(CCc3cccnc3)CC2)cc1 [Compound I, 4-(4-methylsulfonylaminobenzoyl)-1-[2-(3-pyridyl)ethyl]piperidine dihydrochloride] | 17 | 0 | 10 | 0 |  |  |  |  |  |  |  |  |  |  |
| Cc1cccc(CCN2CCC(C(=O)c3ccc(NS(C)(=O)=O)cc3)CC2)n1 [Compound S, 1-(2-(6-methyl-2-pyridyl)ethyl)-4-(4-methylsulfonylaminobenzoyl)piperidinedihydrochloride] |  |  |  |  |  |  |  | 20 | 30 | 0 | 0 |  |  |  |
| CS(=O)(=O)Nc1ccc(C(=O)C2CCN(CCc3ccc(Cl)cc3)CC2)cc1 [Compound C, 1-[2-(4-chlorophenyl)ethyl]-4-(4-methylsulfonylaminobenzoyl)piperidine hydrochloride] | 15 | 0 | 7 | 0 |  |  |  |  |  |  |  |  |  |  |
| CCN1CCC(C(=O)c2ccc(NS(C)(=O)=O)cc2)CC1 [Compound P, 1-ethyl-4-(4-methylsulfonylaminobenzoyl)piperidine hydrochloride] | 23 | 2 | 7 | 0 |  |  | 7 |  |  |  |  | 14 |  |  |
| CS(=O)(=O)Nc1ccc(C(=O)C2CCN(CC(=O)c3cnc4ccccn34)CC2)cc1.Cl.Cl [Compound N, 1-[2-(3-imidazo[1,2-a]pyridyl)-2-oxo-ethyl]-4-(4-methylsulfonylaminobenzoyl)piperidine dihydrochloride] | 8 | 0 | 8 | 0 | 224 |  |  |  |  |  |  |  |  |  |
| CS(=O)(=O)Nc1ccc(C(=O)C2CCN(CCc3ccncc3)CC2)cc1.Cl.Cl [Compound J, 4-(4-methylsulfonylaminobenzoyl)-1-[2-(4-pyridyl)ethyl]piperidine dihydrochloride] | 10 | 0 | 4 | 0 | 195 |  | 21 |  |  |  |  | 42 |  |  |
| CS(=O)(=O)Nc1ccc(C(=O)C2CCN(Cc3ccncc3)CC2)cc1.Cl.Cl [Compound G, 4-(4-methylsulfonylaminobenzoyl)-1-(4-pyridyl)methylpiperidine dihydrochloride] | 33 | 0 | 18 | 0 | 108 |  | 17 |  |  |  |  | 27 | 35 |  |
| CS(=O)(=O)Nc1ccc(C(=O)C2CCN(C(=O)c3ccc(NS(C)(=O)=O)cc3)CC2)cc1 [Compound D, 1,4-di(4-methylsulfonylaminobenzoyl)piperidine hydrochloride] | 10 | 0 | 3 | 0 |  |  |  |  |  |  |  |  |  |  |
| CS(=O)(=O)Nc1ccc(C(=O)C2CCN(CCc3cccs3)CC2)cc1.CS(=O)(=O)O [Compound F, 4-(4-methylsulfonylaminobenzoyl)-1-[2-(2-thienyl)ethyl]piperidine methylsulfonate] | 11 | 0 | 8 | 0 | 112 |  |  |  |  |  |  |  |  |  |
| CS(=O)(=O)Nc1ccc(C(=O)C2CCN(Cc3ccc4nccn4c3)CC2)cc1 [Compound Q, 1-(6-imidazo[1,2-a]pyridylmethyl)-4-(4-methylsulfonylaminobenzoyl)piperidine dihydrochloride] | 23 | 0 | 4 | 0 |  |  |  |  |  |  |  |  |  |  |
| CS(=O)(=O)Nc1ccc(C(=O)C2CCN(Cc3cnc4ccccc4c3)CC2)cc1.Cl.Cl [Compound M, 4-(4-methylsulfonylaminobenzoyl)-1-(3-quinolylmethyl)piperidine dihydrochloride] | 5 | 0 | 3 | 0 | 112 |  | 7 |  |  |  |  | 13 | 21 |  |
| CS(=O)(=O)Nc1ccc(C(=O)C2CCN(CCc3ccccc3)CC2)cc1.Cl [Compound B, 4-(4-methylsulfonylaminobenzoyl)-1-(2-phenylethyl)piperidine hydrochloride] | 34 | 19 | 26 | 0 | 100 |  | 51 |  |  |  |  |  |  | 665 |
| CC(C)NCC(O)c1ccc(NS(C)(=O)=O)cc1 (centres unmarked) [Sotalol, reference compound] | 7 | 0 | 0 | 0 | 113 |  |  |  |  |  |  |  | 12 |  |
| CS(=O)(=O)Nc1ccc(C(=O)C2CCN(Cc3ccccc3)CC2)cc1 [Compound A, 1-benzyl-4-(4-methylsulfonylaminobenzoyl)piperidine hydrochloride] | 7 | 0 | 0 | 0 |  |  |  |  |  |  |  |  |  |  |
| CS(=O)(=O)Nc1ccc(C(=O)C2CCN(Cc3ccc4ccccc4n3)CC2)cc1.Cl.Cl [Compound L, 4-(4-methylsulfonylaminobenzoyl)-1-(2-quinolylmethyl)piperidine dihydrochloride] | 26 | 2 | 18 | 0 | 112 |  | 31 |  |  |  |  | 56 |  |  |
| COc1ccc(CCN2CCC(C(=O)c3ccc(NS(C)(=O)=O)cc3)CC2)cc1OC [Compound E, 1-[2-(3,4-dimethoxyphenyl)ethyl]-4-(4-methylsulfonylaminobenzoyl)piperidine hydrochloride] | 14 | 0 | 12 | 0 |  |  |  |  |  |  |  |  |  |  |
| CS(=O)(=O)Nc1ccc(C(=O)C2CCN(CCc3ccccn3)CC2)cc1 [Compound H, 4-(4-methylsulfonylaminobenzoyl)-1-[2-(2-pyridyl)ethyl]piperidine dihydrochloride] | 5 | 0 | 2 | 0 |  |  |  |  |  |  |  |  |  |  |
| CS(=O)(=O)Nc1ccc(C(=O)C2CCN(C(=O)c3cccnc3)CC2)cc1 [Compound K, 4-(4-methylsulfonylaminobenzoyl)-1-nicotinoylpiperidine] | 24 | 14 | 9 | 0 |  |  |  |  |  |  |  |  |  |  |
